The values below come from patent publication US11951131B2, “Anti-SLAMF7 chimeric antigen receptors” (The United States of America, as represented by the …, priority 2018, dated 2024).

“Also recorded” adds a separate entry of the source.

For one series, the system named is NGFR-K562. Briefly: IFN-gamma ELISA, CAR T cells with NGFR-K562 target cells. The class given is cell-based, human. An excerpt: (§1) MM.1S is a SLAMF7^+ multiple myeloma cell line that was obtained from American Type Culture Collection (ATCC). A549 is a BCMA-negative lung cancer cell line (ATCC). TC71 is a BCMA-negative sarcoma cell line. CCRF-CEM, 293T, and A549 are SLAMF7-negative cell lines (ATCC). COL0207, HepG2, U251, Panc10.05, and TC71 are […] that were kind gifts from Dr. Steven Rosenberg, National Cancer Institute. SLAMF7-K562 are K562 cells (ATCC) which were transduced with the gene for full-length SLAMF7. SLAMF7-RPMI are RPMI8226 cells (ATCC) which were transduced with the gene for full-length SLAMF7. NGFR-K562 are K562 cells which were transduced with the gene for low-affinity nerve growth factor (Kochenderfer et al., J. Immunother., 32(7): 689-702 (2009)). All of the human samples mentioned were obtained from patients enrolled in IRB-approved clinical trials at the National Cancer Institute.
(§2) One-hundred thousand SLAMF7^+ or SLAMF7-negative target cells were combined with 100,000 CAR-transduced T cells in duplicate wells of a 96 well round bottom plate in 200 µL of AIM V™ medium (Invitrogen) plus 5% human serum. The plates were incubated at 37° C. for 18-20 hours. Following the incubation, ELISAs (enzyme-linked immunosorbent assays) for IFNγ were performed by using standard methods.
(§3) The T cells columns indicate whether T cells were transduced with Luc90-CD828Z, Luc63-CD828Z, or were untransduced. The % CAR^+ in Table B-1 was determined by staining the T cells with Protein L. Except for the % CAR^+ column, all values are pg/mL of IFN-gamma. T cells that were either untransduced or transduced with one of the indicated CARs were cultured with target cells overnight and a standard IFN-gamma ELISA was performed on the culture supernatant.
(§4) All values are pg/mL of IFN-gamma. T cells that were either untransduced or transduced with one of the indicated CARs were cultured with target cells overnight, and a standard IFN-gamma ELISA was performed on the culture supernatant.
(§5) The values in the cells are pg/mL of IFN-gamma. T cells that were either untransduced or transduced with one of the indicated CARs were cultured with target cells overnight, and a standard IFN-gamma ELISA was performed on the culture supernatant. The concentrations of 0, 50, or 200 ng/mL at the top of each column indicates the concentration of soluble SLAMF7 added to all T cell plus target cell overnight cultures in that column. The soluble SLAMF7 was added at the beginning of the overnight culture.
(In general: In an ELISA, binding on a coated surface is turned into a signal by an enzyme label.)

The nature of series [1]: Signs of CAR T-cell-mediated toxicity in mice. The settings on record: mice after CAR T-cell infusion. The class given is in vivo. How it is done:
First, MM.1S human SLAMF7^+ multiple myeloma cell line tumors were established in immunodeficient mice. In this model, the MM.1S cells formed a solid cutaneous mass. Measurable tumors were allowed to develop over 7 days, and then the mice were treated with a single intravenous infusion of MSGV1-IC9-Luc90-CD828Z-transduced human T cells. NSG mice (NOD.Cg-Prkdc^scid Il2rg^tm1Wjl/SzJ) from The Jackson Laboratory, Bar Harbor, Me., were used. Mice received intradermal injections of 4×10^6 MM.1S cells. The cells were suspended in a 1:1 mixture of MATRIGEL™ gelatinous protein mixture (BD Biosciences) and PBS (Phosphate-buffered saline) for injection. Tumors were allowed to grow for 7 days, and then each mouse received a single intravenous infusion of human T cells that were transduced with one of 3 CARs: IC9-Luc90-CD828Z (suicide gene+anti-SLAMF7 CAR), Luc90-CD828Z (anti-SLAMF7 CAR alone), or a negative-control anti-CD19 CAR Hu19-CD828Z. A 4th group was left untreated. All groups included 5 mice. After CAR T-cell infusion, the tumors were measured with calipers every 3 days. The longest length and the length perpendicular to the longest length and the tumor thickness were multiplied together to obtain the tumor volume in mm^3. When the longest length reached 15 mm, mice were sacrificed. Animal studies were approved by the National Cancer Institute Animal Care and Use Committee. […]

The test system of another series is T cells only. Briefly: IFN-gamma ELISA, T cells only (no target cells). In kind it is cell-based, human. How it is done: as §2, §3, §4, §5
The subject of another series is IC9-expressing T cells. The experiment in a line: 6-hour and 48-hour post-rimiducid T cell death analysis. In kind it is cell-based, human. The following applies: for elimination of CAR T cells when AP1903 was added to the T-cell cultures: per construct, in words. On the procedure:
On day 8 of culture, 1 million T cells from cultures that were either untransduced or transduced with one of the anti-SLAMF7 CARs cells were suspended at 1×10^6 T cells/mL in AIM V™ media (Invitrogen) plus 300 IU of interleukin-2. One million cells were added to each of 4 wells of a 12-well plate. A different concentration of AP1903 (MedChem Express, Princeton, N.J.) from was added to each well. AP1903 is also referred to as rimiducid. The concentrations of AP1903 evaluated were: 0, 1, 10, or 100 ng/mL.
Six hours and 48 hours after these cultures were set up, the cells were counted, washed, and stained with Protein L as described above. Next, the cells were washed twice with PBS, re-suspended in Annexin V binding buffer (BD Biosciences), and incubated with allophycocyanin-conjugated Annexin V (BD Biosciences) and 7AAD (BD Biosciences) for 15 minutes (mins) at room temp. The cells were immediately analyzed by flow cytometry.

A further series relates to CCRF-CEM. The experiment in a line: IFN-gamma ELISA, CAR T cells with CCRF-CEM target cells. In kind it is cell-based, human.
Description: as §1, §2, §4

The test system of another series is SLAMF7-K562. Briefly: IFN-gamma ELISA, CAR T cells cultured overnight with SLAMF7-K562 target cells. In kind it is cell-based, human.
Description: as §1, §2, §3, §4

In a further series the test system is MM.1S. The experiment in a line: IFN-gamma ELISA, CAR T cells with MM.1S target cells. The class given is cell-based, human.
Description: as §1, §2, §4

For “IC9-Luc90-CD828Z: CAR plus suicide gene construct (SEQ ID NO: 31): IC9 suicide gene 5′ to the CAR, T2A, Luc90-CD828Z”, in the series on NGFR-K562 (Table E), the “IFN-gamma, NGFR-K562” value came to 30 pg/mL. In addition, in series [1], the “signs of CAR T-cell-mediated toxicity” value is “did not exhibit any signs of CAR T-cell-mediated toxicity; also recorded: did not exhibit ruffled fur or decreased activity; also recorded: no toxicity”. The “IFN-gamma, T-cells Alone” value in the series on T cells only (Table E) came to 38 pg/mL. The “elimination of CAR^+ T cells, comparison of the two constructs” value in the series on IC9-expressing T cells (IC9-Luc90-CD828Z compared with Luc90-CD828Z-IC9) is “slightly superior”. In addition, the “elimination of CAR T cells when AP1903 was added to the T-cell cultures” value in the series with IC9-expressing T cells is reported as “efficiently eliminated”. Further, in the series on CCRF-CEM (Table E), the “IFN-gamma, CCRF-CEM” value is listed as 33 pg/mL. The “IFN-gamma, SLAMF7-K562” value in the series on SLAMF7-K562 (Table E, overnight culture) amounted to 2225 pg/mL. The “IFN-gamma, MM.1S” value in the series on MM.1S (Table E) turned out to be 1849 pg/mL.
Consider “Luc90-CD828Z: anti-SLAMF7 CAR (SEQ ID NO: 27): murine Luc90 scFv, human CD8a hinge and TM, CD28 and CD3ζ domains; tested as transduced T cells”, for which the “IFN-gamma, target cells NGFR-K562” value is reported as 45 pg/mL with NGFR-K562 (Table B-2, SLAMF7-negative) and 26 pg/mL in the series on NGFR-K562 (Table C). For the same substance, the “IFN-gamma, target cells NGFR K562 0 ng/ml” value in the series on NGFR-K562 (Table D, soluble SLAMF7 added 0 ng/ml) came out at 267 pg/mL. In addition, the “IFN-gamma, target cells NGFR K562 50 ng/ml” value in the series on NGFR-K562 (Table D, soluble SLAMF7 added 50 ng/ml) is 223 pg/mL. In the series on NGFR-K562 (Table D, soluble SLAMF7 added 200 ng/ml), the “IFN-gamma, target cells NGFR K562 200 ng/ml” value came to 224 pg/mL. Moreover, the “signs of CAR T-cell-mediated toxicity” value in series [1] is “did not exhibit ruffled fur or decreased activity”. Further, the “IFN-gamma, T cells only” value in the series on T cells only (Table B-2) was determined as 29 pg/mL; in the series with T cells only (Table C), 33 pg/mL. The “IFN-gamma, T cells 0 ng/ml” value with T cells only (Table D, no target cells, soluble SLAMF7 0 ng/ml) is 172 pg/mL. In addition, the “IFN-gamma, T cells 50 ng/ml” value in the series with T cells only (Table D, no target cells, soluble SLAMF7 50 ng/ml) is 160 pg/mL. In the series with T cells only (Table D, no target cells, soluble SLAMF7 200 ng/ml), the “IFN-gamma, T cells 200 ng/ml” value is on record as 41 pg/mL. Further, in the series on IC9-expressing T cells, the “elimination of CAR T cells when AP1903 was added to the T-cell cultures” value is “efficiently eliminated”. For the same substance, the “IFN-gamma, target cells CCRF-CEM” value in the series on CCRF-CEM (Table C) was 16 pg/mL. Moreover, the “IFN-gamma, target cells SLAMF7-K562” value in the series with SLAMF7-K562 (Table B-1, overnight culture) is 16579 pg/mL; with SLAMF7-K562 (Table B-2, overnight culture), 20055 pg/mL; in the series on SLAMF7-K562 (Table C), 15759 pg/mL. The “IFN-gamma, target cells MM.1S” value with MM.1S (Table C) was 4269 pg/mL.
